Measurements: ChEMBL document CHEMBL5543084, “Development of cannabidiol derivatives as potent broad-spectrum antibacterial agents with membrane-disruptive mechanism” (Eur J Med Chem, 2024)
≈ marks a conversion by molar mass, not a printed value. Calls of active or inactive are those of the source. No cut-off for these calls is given here.

Tests used:
Staphylococcus aureus [1] = assay: Antibacterial activity against Staphylococcus aureus ATCC 29213 assessed as inhibition of bacterial growth incubated for 24 hrs in presence of 4.5 mM K+ by broth dilution method; format: functional
Staphylococcus aureus [2] = assay: Antibacterial activity against Staphylococcus aureus ATCC 29213 assessed as inhibition of bacterial growth incubated for 24 hrs in presence of 20 uM Fe2+ by broth dilution method; format: functional
Staphylococcus aureus [3] = assay: Antibacterial activity against methicillin-resistant Staphylococcus aureus NCTC 10442 assessed as inhibition of bacterial growth incubated for 24 hrs in presence of 140 mM Na+ by broth dilution method; format: functional
Staphylococcus aureus [4] = assay: (§1) Bactericidal activity against methicillin-resistant Staphylococcus aureus NCTC 10442 assessed as up-regulation of molecular functions related gene expression by measuring glutamate-ammonia ligase activity (GO:0004356) at 4 times of MIC concentration measured after 90 mins incubation by RNA sequencing (RNA-seq) study; format: functional, organism-based
[5] = Cytotoxicity against mouse fibroblast NCTC clone 929 cells assessed as viable cells at 25 microg/ml incubated for 24 hrs by CCK-8 assay; format: toxicity, cell-based; conditions: NCTC clone 929 (L929) fibroblast cells, at 25 µg/mL, read-out: Activity
Staphylococcus aureus [6] = assay: Antibacterial activity against methicillin-resistant Staphylococcus aureus NCTC 10442 assessed as inhibition of bacterial growth incubated for 24 hrs in presence of 1 mM Mg2+ by broth dilution method; format: functional
Lipopolysaccharide (LPS) [7] = assay: Displacement of BODIPY-TR-cadaverine from Escherichia coli lipopolysaccharide (LPS) assessed as increase in fluorescence intensity at 2 times MIC measured after 30 mins by fluorescence spectrophotometric analysis; format: subcellular
Staphylococcus aureus [8] = assay: as §1, with “aminoacyl-tRNA hydrolase” for “glutamate-ammonia ligase”, “(GO:0004045)” for “(GO:0004356)”; format: functional, organism-based
Staphylococcus aureus [9] = assay: Bactericidal activity against methicillin-resistant Staphylococcus aureus NCTC 10442 assessed as down-regulation of biological processes related gene expression by measuring glutamate metabolic process (GO:0006536) at 4 times of MIC concentration measured after 90 mins incubation by RNA sequencing (RNA-seq) study; format: functional, organism-based
Klebsiella pneumoniae [10] = assay: Antibacterial activity against Klebsiella pneumoniae ATCC 10031 assessed as inhibition of bacterial growth incubated for 24 hrs in presence of 1 mM Mg2+ by broth dilution method; format: functional
Staphylococcus aureus [11] = assay: Antibacterial activity against Staphylococcus aureus ATCC 29213 assessed as inhibition of bacterial growth incubated for 24 hrs in presence of 20 uM Fe3+ by broth dilution method; format: functional
Escherichia coli [12] = assay: Antibacterial activity against Escherichia coli ATCC 25922 assessed as inhibition of bacterial growth incubated for 24 hrs in presence of 1 mM Mg2+ by broth dilution method; format: functional
Escherichia coli [13] = assay: Antibacterial activity against Escherichia coli ATCC 25922 assessed as inhibition of bacterial growth incubated for 24 hrs in presence of 20 uM Fe2+ by broth dilution method; format: functional
[14] = Hemolytic activity against rabbit blood cells incubated for 1 hr relative to control; format: toxicity, cell-based, Oryctolagus cuniculus, Erythrocyte; conditions: rabbit blood cells (erythrocytes)
Staphylococcus aureus [15] = assay: Bactericidal activity against methicillin-resistant Staphylococcus aureus NCTC 10442 assessed as change in amino acid metabolism gene expression at 4 times of MIC concentration measured after 90 mins incubation by RNA sequencing (RNA-seq) study; format: functional, organism-based
Lipoteichoic acid [16] = assay: Displacement of BODIPY-TR-cadaverine from Bacillus subtilis lipoteichoic acid (LTA) assessed as increase in fluorescence intensity at 1 times MIC measured after 30 mins by fluorescence spectrophotometric analysis
Staphylococcus aureus [17] = assay: as §1, with “uracil DNA N-glycosylase” for “glutamate-ammonia ligase”, “(GO:0004844)” for “(GO:0004356)”; format: functional, organism-based
Staphylococcus aureus [18] = assay: Antibacterial activity against Staphylococcus aureus ATCC 29213 assessed as inhibition of bacterial growth incubated for 24 hrs in presence of 1 mM Mg2+ by broth dilution method; format: functional
[19] = Cytotoxicity against mouse fibroblast NCTC clone 929 cells assessed as viable cells at 3.125 microg/ml incubated for 24 hrs by CCK-8 assay; format: toxicity, cell-based; conditions: NCTC clone 929 (L929) fibroblast cells, at 3.125 µg/mL, read-out: Activity
Acinetobacter baumannii = assay: Antibacterial activity against Acinetobacter baumannii R2889 assessed as inhibition of bacterial growth incubated for 24 hrs by broth dilution method; format: functional
Escherichia coli [20] = assay: Bactericidal activity against Escherichia coli ATCC 25922 assessed as down regulation of phenylalanine metabolism gene expression at 4 times of MIC concentration measured after 90 mins incubation by RNA sequencing (RNA-seq) study; format: functional, organism-based
Pseudomonas aeruginosa = assay: Antibacterial activity against Pseudomonas aeruginosa ATCC 9027 assessed as inhibition of bacterial growth incubated for 24 hrs by broth dilution method; format: functional
Klebsiella pneumoniae [21] = assay: Antibacterial activity against Klebsiella pneumoniae ATCC 10031 assessed as inhibition of bacterial growth incubated for 24 hrs in presence of 20 uM Fe3+ by broth dilution method; format: functional
Escherichia coli [22] = assay: (§2) Bactericidal activity against Escherichia coli ATCC 25922 assessed as change in metabolic stress associated gene expression by measuring down-regulation of gale (DX983_RS06370) gene expression at 4 times of MIC concentration measured after 90 mins incubation by RNA sequencing (RNA-seq) study; format: functional, organism-based
[23] = Cytotoxicity against human HepG2 cells assessed as viable cells at 3.125 microg/ml incubated for 24 hrs by CCK-8 assay; format: toxicity, cell-based; conditions: at 3.125 µg/mL, read-out: Activity
Staphylococcus aureus [24] = assay: Antibacterial activity against methicillin-resistant Staphylococcus aureus NCTC 10442 assessed as inhibition of bacterial growth incubated for 24 hrs by broth dilution method; format: functional
Staphylococcus aureus [25] = assay: Antibacterial activity against Staphylococcus aureus ATCC 29213 assessed as inhibition of bacterial growth incubated for 24 hrs by broth dilution method; format: functional
Lipoteichoic acid [26] = assay: Displacement of BODIPY-TR-cadaverine from Bacillus subtilis lipoteichoic acid (LTA) assessed as increase in fluorescence intensity at 4 times MIC measured after 30 mins by fluorescence spectrophotometric analysis
Escherichia coli [27] = assay: as §2, with “cell death” for “metabolic stress”, “the inner membrane protein-coding gene (yqiJ, D1792_RS11855)” for “gale (DX983_RS06370)”; format: functional, organism-based
Lipopolysaccharide (LPS) [28] = assay: Displacement of BODIPY-TR-cadaverine from Escherichia coli lipopolysaccharide (LPS) assessed as increase in fluorescence intensity at 4 times MIC measured after 30 mins by fluorescence spectrophotometric analysis; format: subcellular
Lipopolysaccharide (LPS) [29] = assay: Displacement of BODIPY-TR-cadaverine from Escherichia coli lipopolysaccharide (LPS) assessed as increase in fluorescence intensity at 1 times MIC measured after 30 mins by fluorescence spectrophotometric analysis; format: subcellular
Lipoteichoic acid [30] = assay: Displacement of BODIPY-TR-cadaverine from Bacillus subtilis lipoteichoic acid (LTA) assessed as increase in fluorescence intensity at 2 times MIC measured after 30 mins by fluorescence spectrophotometric analysis
Klebsiella pneumoniae [31] = assay: Antibacterial activity against Klebsiella pneumoniae ATCC 14581 assessed as inhibition of bacterial growth incubated for 24 hrs by broth dilution method; format: functional
Escherichia coli [32] = assay: Bactericidal activity against Escherichia coli ATCC 25922 assessed as change in xenobiotics biodegradation and metabolism gene expression at 4 times of MIC concentration measured after 90 mins incubation by RNA sequencing (RNA-seq) study; format: functional, organism-based
Escherichia coli [33] = assay: as §2, with “cell death” for “metabolic stress”, “glycosyltransferase family 2 (D1792_RS06385)” for “gale (DX983_RS06370)”; format: functional, organism-based

SMILES: C=C(C)[C@@H]1CCC(C)=C[C@H]1c1c(OCCCNC(=N)N)cc(CCCCC)cc1OCCCNC(=N)N
- MIC (Staphylococcus aureus [1]): 0.78 µg/mL
- MIC (Staphylococcus aureus [2]): 0.39 µg/mL
- MIC (Staphylococcus aureus [3]): 0.39 µg/mL
- Activity (Staphylococcus aureus [4]): Active
- viability at 24 h, 25 microg/ml [5]: 68.7%
- MIC (Staphylococcus aureus [6]): 0.39 µg/mL
- Activity (Lipopolysaccharide (LPS) [7]): 54%
- Activity (Staphylococcus aureus [8]): Active
- Activity (Staphylococcus aureus [9]): Active
- MIC (Klebsiella pneumoniae [10]): 6.25 µg/mL
- MIC (Staphylococcus aureus [11]): 0.39 µg/mL
- MIC (Escherichia coli [12]): 1.56 µg/mL
- MIC (Escherichia coli [13]): 1.56 µg/mL
- HC50 at 1 h [14]: > 200 µg/mL
- Activity (Staphylococcus aureus [15]): Active
- Activity (Lipoteichoic acid [16]): 11.2%
- Activity (Staphylococcus aureus [17]): Active
- MIC (Staphylococcus aureus [18]): 1.56 µg/mL
- viability at 24 h, 3.125 microg/ml [19]: 92.3%
- MIC (Acinetobacter baumannii): 3.12 µg/mL (≈ 6.09 µM)
- Activity (Escherichia coli [20]): Active
- MIC (Pseudomonas aeruginosa): 6.25 µg/mL (≈ 12.2 µM)
- MIC (Klebsiella pneumoniae [21]): 3.12 µg/mL
- Activity (Escherichia coli [22]): Active
- viability at 24 h, 3.125 microg/ml [23]: 111%
- MIC (Staphylococcus aureus [24]): 0.78 µg/mL (≈ 1.52 µM)
- MIC (Staphylococcus aureus [25]): 0.78 µg/mL (≈ 1.52 µM)
- Activity (Lipoteichoic acid [26]): 33.7%
- Activity (Escherichia coli [27]): Active
- Activity (Lipopolysaccharide (LPS) [28]): 76.5%
- Activity (Lipopolysaccharide (LPS) [29]): 27.7%
- Activity (Lipoteichoic acid [30]): 19.8%
- MIC (Klebsiella pneumoniae [31]): 1.56 µg/mL (≈ 3.04 µM)
- Activity (Escherichia coli [32]): Active
- Activity (Escherichia coli [33]): Active
